According to patent US11787839B2, “Targeting α2δ-1-bound glutamate receptors for treating diseases and disorders” (Board of Regents, The University of Texas System, priority 2017, dated 2023):

What was measured:
MCAO mice = test: MCAO ischemic stroke model: neurological deficit and infarct volume; type: in vivo, mouse; conditions: 90 min MCAO, 24 h reperfusion; gabapentin 100 mg/kg i.p. pre- or posttreatment; peptide 200 μg/kg i.p. twice
Procedure: Gabapentin was administered intraperitoneally (i.p.) either before or after initiating MCAO in separate groups of mice (pretreatment and posttreatment groups). […] Saline at the same volume as the gabapentin was administered i.p. in a vehicle group that also received MCAO.
It was then determined whether the α2δ-1-NMDAR interaction is involved in brain injury and neurological deficits caused by MCAO. In this protocol, MCAO-subjected mice with two injections of α2δ-1Tat peptide or control peptide (both 200 μg/kg, i.p.): one at 15 min before MCAO and another immediately before reperfusion. […] Furthermore, the brain infarct volume was much less in mice treated with α2δ-1Tat peptide than in mice treated with the control peptide (FIG. 22D).
Animal model. All procedures and protocols were approved by the Institutional Animal Care and Use Committee of The University of Texas MD Anderson Cancer Center. Adult male wild-type (WT) and conventional Cacna2d1 knockout (KO) mice (25-30 g, 8-10 weeks of age) were used in the study. MCAO was used in mice as an ischemic stroke model. The neurological deficits of mice subjected to MCAO were evaluated using a modified Longa test on a scale of 0-5. The brain coronal sections were stained using 1% 2,3,5-triphenyltetrazolium chloride (TTC), and the stained sections were captured as digital images and quantified for infarct volume.

calpain = test: MCAO: spectrin BD level (calpain activation) in brain tissues; type: in vivo, mouse; conditions: MCAO WT mice; gabapentin posttreatment; peptide 200 μg/kg i.p. twice
From the text: α2δ-1 and α2δ-1-bound NMDARs contribute to MCAO-induced calpain activation in brain tissues: Cerebral ischemia increases calpain activity, and calpain inhibition is neuroprotective against ischemia-induced brain injury. Spectrin is highly sensitive to proteolysis by calpain, and the stable αIIspectrin breakdown product (spectrin BD, 150 kDa) is commonly used as a biochemical assay for calpain activation.

anesthetized rats = test: PVN microinjection and recording of RSNA and ABP (Ang II); type: in vivo, rat
Procedure: PVN microinjection and recording of renal sympathetic nerve activity: Rats were anesthetized with a mixture of α-chloralose (60 mg/kg, i.p.) and urethane (800 mg/kg, i.p.). A retroperitoneal incision was made, and a branch of the left renal postganglionic sympathetic nerve was isolated under a surgical microscope. The renal sympathetic nerve was cut distally to ensure that afferent nerve activity was not recorded. The renal sympathetic nerve activity (RSNA), arterial blood pressure (ABP), and heart rate (HR) were recorded using a 1401-PLUS analog-to-digital converter and Spike2 system (Cambridge Electronic Design, Cambridge, UK). A microinjection pipette (tip diameter, 20-30 μm) was advanced into the PVN according to the following stereotactic coordinates: 1.6-2.0 mm caudal to the bregma, 0.5 mm lateral to the midline, and 7.0-7.5 mm ventral to the dura. The microinjection was done using a calibrated microinjection system (Nanoject II; Drummond Scientific) and monitored using a surgical microscope as described previously (Li and Pan, 2006, 2007; Qiao et al., 2017). Ang II (200 μmol/L, 50 nl) was microinjected into the PVN to observe the change in RSNA and ABP in the absence or presence of α2δ-1Tat peptide (100 μmol/L, 50 nl) or control peptide (100 μmol/L, 50 nl). The microinjections were separated by 10- to 15-min intervals to allow recovery of the response. To determine the location of the injection site and diffusion of the drugs in the PVN, 5% rhodamine-labeled fluorescent microspheres (0.04 μm; Molecular Probes) were included in the injection solution (Li and Pan, 2006, 2007; Qiao et al., 2017).

[1] = molecular target: T1, NMDARs of spinally projecting PVN neurons (Rattus norvegicus, UniProt P35439+Q00959+Q00960); test: Recordings of spinally projecting PVN neurons in rat brain slices (Ang II); type: cell-based
T1 construct: from tissue; host or cells: rat hypothalamic slices containing the PVN (Sprague-Dawley, WKY, SHR) and synaptosomes made from them
From the text: Retrograde labeling of spinally projecting PVN neurons: Rats or mice were anesthetized with 2-3% isoflurane, and their spinal cords at the T1-T4 level were exposed through dorsal laminectomy. A fluorescent microsphere suspension (FluoSpheres, 0.04 μm; Molecular Probes, Invitrogen, Eugene, Oreg.) was pressure ejected (Nanoject II Microinjectors, Drummond Scientific Company, Broomall, Pa.) bilaterally into the IML region of the spinal cord in six separate 50-nl injections using a glass micropipette (tip diameter, 20-30 μm). […] The wound was closed with sutures after injection. Animals were returned to their cages for 4-7 days, which was sufficient time to permit the tracer to be retrogradely transported to the PVN. The animals were inspected daily for motor activity, signs of infection, and food and water intake.
Brain slice preparation: Four to seven days after fluorescent tracer injection, the animals were anesthetized with isoflurane and rapidly decapitated. […] Coronal slices (thickness, 300 μm) containing the PVN were cut from the tissue block in the ice-cold aCSF. […] The brain slices were placed in a glass-bottom chamber and continuously perfused with aCSF at 3.0 ml/min at 34° C. maintained by an inline solution heater and temperature controller.
The labeled PVN neurons were briefly identified with the aid of epifluorescence illumination, and whole-cell recordings from labeled PVN neurons were performed under differential interference contrast optics on an upright microscope (BX50 WI; Olympus Optical, Tokyo, Japan). Recordings of postsynaptic currents began 5 min after the whole-cell access was established and the current reached a steady state.
Signals were processed with an […] amplifier (Axon Instruments, Foster City, Calif.). A liquid junction potential of 15 mV (for the potassium gluconate pipette solution) was corrected during off-line analysis.
Postsynaptic NMDAR currents were elicited by puff application of 100 μmol/L NMDA to the recorded neuron using a positive pressure system (4 p.s.i., 50 ms; Toohey Company, Fairfield, N.J.). The tip of the puff pipette was placed 150 μm from the recorded neuron. […] The NMDAR current data presented in the manuscript were the average of 3 consecutive currents elicited by repeated puff NMDA. The neuron was discarded if the current was not stable.
Ang II, losartan, and NMDA were obtained from Sigma (St. Louis, Mo.). The α2δ-1Tat peptide and scrambled control peptide were synthesized by Bio Basic Inc. (Markham, Ontario, Canada) and validated by liquid chromatography and mass spectrometry. […] All drugs were prepared immediately before the experiments and applied to the slice chamber. The brain slices were first pretreated with Ang II, losartan, α2δ-1Tat peptide, or control peptide in the slice incubation chamber before recording. For electrophysiological recording, the treatment agents were immediately removed and the brain slice transferred to a separate recording chamber.

T1 sequence (Q00959 20-1464 limits assumed, other chains not shown): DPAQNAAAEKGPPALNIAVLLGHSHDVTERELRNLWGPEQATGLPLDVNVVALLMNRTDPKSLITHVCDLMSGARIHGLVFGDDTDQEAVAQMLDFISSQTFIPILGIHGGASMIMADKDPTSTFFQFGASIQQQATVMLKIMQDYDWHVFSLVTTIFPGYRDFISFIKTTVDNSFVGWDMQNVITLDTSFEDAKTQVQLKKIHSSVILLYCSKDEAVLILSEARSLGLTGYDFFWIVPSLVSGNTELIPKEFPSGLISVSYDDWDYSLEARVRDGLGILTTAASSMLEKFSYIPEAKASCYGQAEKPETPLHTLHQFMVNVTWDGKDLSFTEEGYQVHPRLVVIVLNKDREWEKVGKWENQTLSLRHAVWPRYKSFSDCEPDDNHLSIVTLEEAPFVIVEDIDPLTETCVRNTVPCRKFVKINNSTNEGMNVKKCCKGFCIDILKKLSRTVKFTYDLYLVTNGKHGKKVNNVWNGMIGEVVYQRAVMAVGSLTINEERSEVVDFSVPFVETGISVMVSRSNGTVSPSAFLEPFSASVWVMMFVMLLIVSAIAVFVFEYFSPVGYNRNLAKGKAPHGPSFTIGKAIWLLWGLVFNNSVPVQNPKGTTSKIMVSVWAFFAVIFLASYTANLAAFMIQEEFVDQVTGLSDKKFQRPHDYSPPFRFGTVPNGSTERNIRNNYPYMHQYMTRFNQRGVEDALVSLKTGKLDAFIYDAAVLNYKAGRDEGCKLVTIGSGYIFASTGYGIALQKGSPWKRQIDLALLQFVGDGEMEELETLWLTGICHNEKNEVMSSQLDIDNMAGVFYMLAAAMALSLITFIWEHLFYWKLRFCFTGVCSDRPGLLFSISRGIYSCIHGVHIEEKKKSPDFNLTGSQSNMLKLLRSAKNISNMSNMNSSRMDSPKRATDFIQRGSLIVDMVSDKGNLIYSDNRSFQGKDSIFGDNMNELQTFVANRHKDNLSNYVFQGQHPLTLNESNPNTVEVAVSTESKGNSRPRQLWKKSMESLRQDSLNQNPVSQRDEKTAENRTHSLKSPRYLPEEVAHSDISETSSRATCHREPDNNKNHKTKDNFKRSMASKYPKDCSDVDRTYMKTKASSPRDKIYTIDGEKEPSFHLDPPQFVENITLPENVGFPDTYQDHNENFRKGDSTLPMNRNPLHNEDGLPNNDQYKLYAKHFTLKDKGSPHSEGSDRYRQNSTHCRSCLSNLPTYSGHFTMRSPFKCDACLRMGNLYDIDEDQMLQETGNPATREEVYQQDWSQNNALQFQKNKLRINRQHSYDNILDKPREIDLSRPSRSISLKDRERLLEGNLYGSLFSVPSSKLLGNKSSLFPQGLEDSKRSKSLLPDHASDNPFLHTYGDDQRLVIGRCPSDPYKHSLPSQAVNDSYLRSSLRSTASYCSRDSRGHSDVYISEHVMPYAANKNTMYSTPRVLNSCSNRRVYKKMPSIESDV
T1 sequence (Q00960 27-1482, other chains not shown): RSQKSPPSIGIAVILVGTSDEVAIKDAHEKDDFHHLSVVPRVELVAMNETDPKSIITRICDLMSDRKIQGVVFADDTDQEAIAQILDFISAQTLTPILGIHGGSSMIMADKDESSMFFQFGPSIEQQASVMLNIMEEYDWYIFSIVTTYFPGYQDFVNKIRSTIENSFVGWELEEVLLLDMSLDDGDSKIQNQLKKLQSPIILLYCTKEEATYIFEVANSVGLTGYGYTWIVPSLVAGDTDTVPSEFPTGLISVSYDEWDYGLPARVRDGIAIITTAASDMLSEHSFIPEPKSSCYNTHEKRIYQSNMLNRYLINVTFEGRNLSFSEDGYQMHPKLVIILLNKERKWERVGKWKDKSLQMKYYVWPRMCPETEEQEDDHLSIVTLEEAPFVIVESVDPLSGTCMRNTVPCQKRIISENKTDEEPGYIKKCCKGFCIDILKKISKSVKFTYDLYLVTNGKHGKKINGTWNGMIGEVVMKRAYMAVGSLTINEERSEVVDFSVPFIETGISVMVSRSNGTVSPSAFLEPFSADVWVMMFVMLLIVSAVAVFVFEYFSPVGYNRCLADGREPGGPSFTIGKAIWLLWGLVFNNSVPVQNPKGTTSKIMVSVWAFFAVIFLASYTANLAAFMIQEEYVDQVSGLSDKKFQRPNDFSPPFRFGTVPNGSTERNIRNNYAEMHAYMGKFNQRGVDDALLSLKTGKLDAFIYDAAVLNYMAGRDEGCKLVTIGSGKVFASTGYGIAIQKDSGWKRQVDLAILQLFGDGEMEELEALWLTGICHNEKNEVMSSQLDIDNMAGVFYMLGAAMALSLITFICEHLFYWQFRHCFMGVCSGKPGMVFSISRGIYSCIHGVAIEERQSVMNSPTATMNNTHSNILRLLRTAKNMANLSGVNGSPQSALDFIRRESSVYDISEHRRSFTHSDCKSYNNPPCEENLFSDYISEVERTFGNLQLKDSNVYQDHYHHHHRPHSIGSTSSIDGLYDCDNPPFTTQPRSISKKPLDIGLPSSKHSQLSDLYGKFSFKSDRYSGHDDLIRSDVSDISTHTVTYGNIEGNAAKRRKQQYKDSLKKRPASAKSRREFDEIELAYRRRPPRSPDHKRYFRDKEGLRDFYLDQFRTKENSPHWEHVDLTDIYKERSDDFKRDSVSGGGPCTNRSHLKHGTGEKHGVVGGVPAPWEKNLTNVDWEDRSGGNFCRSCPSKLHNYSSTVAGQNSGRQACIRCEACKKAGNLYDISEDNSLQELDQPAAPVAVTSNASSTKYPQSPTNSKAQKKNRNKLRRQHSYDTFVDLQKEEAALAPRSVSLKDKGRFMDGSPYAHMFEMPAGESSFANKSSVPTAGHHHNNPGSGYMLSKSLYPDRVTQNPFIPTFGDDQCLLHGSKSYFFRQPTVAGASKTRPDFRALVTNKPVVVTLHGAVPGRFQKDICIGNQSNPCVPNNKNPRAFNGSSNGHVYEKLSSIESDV

Row | Compound | brain infarct volume (MCAO mice) | neurological deficit score (MCAO mice) | spectrin BD level in cortex, hippocampus and striatum (calpain) | RSNA and mean ABP (anesthetized rats; Ang II 200 μmol/L, 50 nl into the PVN) | amplitude of puff NMDA currents of labeled PVN neurons ([1]; Ang II 2 μmol/L for 30-60 min) | baseline frequency of mEPSCs of labeled PVN neurons ([1]; Ang II 2 μmol/L for 30-60 min) | ABP and RSNA responses to Ang II after prior peptide microinjection into the PVN (anesthetized rats; peptides 100 μmol/L, 50 nl) | effect of Ang II on mEPSC frequency in pretreated slices ([1]; losartan 2 μmol/L, pregabalin 20 μmol/L, peptides 1 μmol/L) | effect of Ang II on puff NMDA currents in pretreated slices ([1]; losartan 2 μmol/L, pregabalin 20 μmol/L, peptides 1 μmol/L, 30 min)
1 | NCC1(CC(=O)O)CCCCC1 [gabapentin] | much smaller | significantly improved | significantly reduced |  |  |  |  |  | 
2 | Ang II: angiotensin II, obtained from Sigma (DRVYIHPF; Angiotensin-2; UniProt P01019 25-32, looked up) |  |  |  | significantly increased | markedly increased | significantly increased |  |  | 
3 | YGRKKRRQRRRVSGLNPSLWSIFGLQFILLWLVSGSRHYLW (a2d1 peptide) [α2δ-1Tat peptide, 30-amino-acid peptide mimicking the C-terminal domain of α2δ-1 fused to the cell-penetrating peptide Tat] | much less | significantly reduced | significantly reduced |  |  |  | failed to significantly increase | failed to increase | had no effect
